pIC50: −log10 of the molar value.
Experiments:
Assay type in all cases: cell-based
[1] = molecular target: T1, human TLR7 (Homo sapiens, UniProt Q9NYK1); experiment: TLR7 inhibition reporter assay (HEK-Blue SEAP); details: HEK-Blue cells overexpressing human TLR7, stimulated with gardiquimod 7.5 μM, 22 hour incubation
T1 construct: host or cells: HEK-Blue cells
T1 sequence (Q9NYK1 27-1049): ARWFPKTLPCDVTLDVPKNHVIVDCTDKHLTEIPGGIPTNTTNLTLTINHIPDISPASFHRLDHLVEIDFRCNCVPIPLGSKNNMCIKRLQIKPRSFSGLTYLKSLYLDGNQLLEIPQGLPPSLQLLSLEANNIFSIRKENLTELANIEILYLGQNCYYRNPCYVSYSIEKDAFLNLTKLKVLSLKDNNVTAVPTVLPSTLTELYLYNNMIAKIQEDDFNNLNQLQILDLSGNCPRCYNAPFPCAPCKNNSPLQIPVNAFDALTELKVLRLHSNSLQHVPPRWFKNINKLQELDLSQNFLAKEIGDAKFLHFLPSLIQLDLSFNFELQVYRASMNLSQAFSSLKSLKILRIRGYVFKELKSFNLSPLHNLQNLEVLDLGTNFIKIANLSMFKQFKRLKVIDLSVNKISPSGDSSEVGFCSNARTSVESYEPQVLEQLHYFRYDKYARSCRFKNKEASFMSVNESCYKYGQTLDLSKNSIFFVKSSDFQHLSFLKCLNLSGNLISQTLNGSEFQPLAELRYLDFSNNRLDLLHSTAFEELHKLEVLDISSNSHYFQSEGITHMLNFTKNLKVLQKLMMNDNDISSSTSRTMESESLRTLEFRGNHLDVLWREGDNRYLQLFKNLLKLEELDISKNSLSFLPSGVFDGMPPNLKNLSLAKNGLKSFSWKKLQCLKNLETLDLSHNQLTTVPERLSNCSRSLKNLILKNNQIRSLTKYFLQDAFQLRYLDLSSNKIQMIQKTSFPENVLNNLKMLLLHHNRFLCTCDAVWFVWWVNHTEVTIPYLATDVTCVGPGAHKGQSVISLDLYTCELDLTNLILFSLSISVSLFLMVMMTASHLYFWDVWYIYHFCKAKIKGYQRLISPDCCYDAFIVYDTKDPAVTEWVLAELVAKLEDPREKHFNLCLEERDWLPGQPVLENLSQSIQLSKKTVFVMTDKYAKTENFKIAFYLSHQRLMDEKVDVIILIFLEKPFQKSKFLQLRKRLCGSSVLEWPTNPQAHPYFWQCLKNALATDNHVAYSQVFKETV
Outline: (§1)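 HEK-Blue cells overexpressing human TLR7, TLR8 or TLR9 with an NF-κB/AP-1-driven SEAP reporter were pre-treated 30 min at room temperature with compound (0.05 nM to 50 μM), then stimulated with gardiquimod 7.5 μM (TLR7), R848 15.9 μM (TLR8) or ODN2006 5 nM (TLR9). SEAP measured after 22 h at 37° C; inhibition normalized between agonist-plus-DMSO and reference-inhibitor wells.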

[2] = molecular target: T2, human TLR9 (Homo sapiens, UniProt Q9NR96); experiment: TLR9 inhibition reporter assay (HEK-Blue SEAP); details: HEK-Blue cells overexpressing human TLR9, stimulated with ODN2006 5 nM, 22 hour incubation
T2 construct: host or cells: HEK-Blue cells
T2 sequence (Q9NR96 26-1032): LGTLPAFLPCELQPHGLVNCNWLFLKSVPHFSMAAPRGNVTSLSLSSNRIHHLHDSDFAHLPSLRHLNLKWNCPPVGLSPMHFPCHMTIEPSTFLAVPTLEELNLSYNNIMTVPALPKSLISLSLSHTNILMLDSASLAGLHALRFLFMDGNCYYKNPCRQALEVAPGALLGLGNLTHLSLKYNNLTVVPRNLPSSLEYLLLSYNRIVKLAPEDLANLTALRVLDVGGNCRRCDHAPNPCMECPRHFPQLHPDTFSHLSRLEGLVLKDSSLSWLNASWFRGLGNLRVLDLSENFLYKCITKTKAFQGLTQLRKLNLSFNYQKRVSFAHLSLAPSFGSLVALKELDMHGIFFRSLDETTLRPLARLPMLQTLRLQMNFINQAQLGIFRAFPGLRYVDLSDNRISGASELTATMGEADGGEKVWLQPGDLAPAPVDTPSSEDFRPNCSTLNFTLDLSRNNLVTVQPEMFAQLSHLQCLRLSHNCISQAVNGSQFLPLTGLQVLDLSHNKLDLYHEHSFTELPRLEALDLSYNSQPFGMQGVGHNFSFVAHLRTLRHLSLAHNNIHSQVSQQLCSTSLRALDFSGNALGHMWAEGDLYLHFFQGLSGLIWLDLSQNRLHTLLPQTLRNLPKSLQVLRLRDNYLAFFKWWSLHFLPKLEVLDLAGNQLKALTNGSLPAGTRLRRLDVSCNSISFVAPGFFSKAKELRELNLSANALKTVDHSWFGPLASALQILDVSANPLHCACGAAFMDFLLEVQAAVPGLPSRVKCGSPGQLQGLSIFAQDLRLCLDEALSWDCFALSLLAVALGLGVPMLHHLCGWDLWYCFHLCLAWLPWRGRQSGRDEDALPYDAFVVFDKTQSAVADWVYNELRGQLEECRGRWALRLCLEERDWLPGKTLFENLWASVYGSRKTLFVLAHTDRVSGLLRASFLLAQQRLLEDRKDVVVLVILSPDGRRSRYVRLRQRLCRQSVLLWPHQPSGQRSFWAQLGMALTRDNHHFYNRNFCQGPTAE
Outline: as §1

[3] = molecular target: T3, human TLR8 (Homo sapiens, UniProt Q9NR97); experiment: TLR8 inhibition reporter assay (HEK-Blue SEAP); details: HEK-Blue cells overexpressing human TLR8, stimulated with R848 15.9 μM, 22 hour incubation
T3 construct: host or cells: HEK-Blue cells
T3 sequence (Q9NR97 27-1041): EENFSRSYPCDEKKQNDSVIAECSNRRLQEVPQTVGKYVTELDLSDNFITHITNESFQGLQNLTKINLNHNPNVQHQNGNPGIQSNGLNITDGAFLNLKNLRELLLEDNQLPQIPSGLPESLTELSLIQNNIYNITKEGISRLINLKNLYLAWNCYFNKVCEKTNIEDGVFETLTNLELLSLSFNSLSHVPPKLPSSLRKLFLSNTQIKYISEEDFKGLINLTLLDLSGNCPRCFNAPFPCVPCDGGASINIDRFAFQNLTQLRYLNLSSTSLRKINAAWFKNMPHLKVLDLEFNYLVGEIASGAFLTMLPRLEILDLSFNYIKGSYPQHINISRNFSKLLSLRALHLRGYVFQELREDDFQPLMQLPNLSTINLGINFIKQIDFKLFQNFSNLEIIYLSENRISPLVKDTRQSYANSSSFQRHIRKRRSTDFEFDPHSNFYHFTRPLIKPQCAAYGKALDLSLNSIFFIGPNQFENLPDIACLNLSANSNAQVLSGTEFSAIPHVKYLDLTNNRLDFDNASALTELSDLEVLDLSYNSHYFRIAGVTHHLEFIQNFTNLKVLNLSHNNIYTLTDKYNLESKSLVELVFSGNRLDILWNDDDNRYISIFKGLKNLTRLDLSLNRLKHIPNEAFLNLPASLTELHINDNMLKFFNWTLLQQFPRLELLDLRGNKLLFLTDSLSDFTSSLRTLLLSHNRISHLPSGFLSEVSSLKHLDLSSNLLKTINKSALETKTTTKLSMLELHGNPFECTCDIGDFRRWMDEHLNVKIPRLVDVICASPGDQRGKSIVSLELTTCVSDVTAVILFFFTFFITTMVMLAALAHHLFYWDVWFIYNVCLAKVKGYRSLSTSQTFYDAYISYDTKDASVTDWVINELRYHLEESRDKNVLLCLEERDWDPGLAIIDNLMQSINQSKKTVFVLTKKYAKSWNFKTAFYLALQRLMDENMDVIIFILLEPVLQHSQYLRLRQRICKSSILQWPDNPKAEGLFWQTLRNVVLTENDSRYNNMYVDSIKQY
Outline: as §1

Row | SMILES | pIC50 [1] | pIC50 [2] | pIC50 [3]
1 | Cc1cc2c(OC3CCN(C(=O)CN(C)C)CC3)n[nH]c2cc1-c1cc(C)c2ncnn2c1 [Example 170, 2-(dimethylamino)-1-(4-((5-methyl-6-(8-methyl-[1,2,4]triazolo[1,5-a]pyridin-6-yl)-1H-indazol-3-yl)oxy)piperidin-1-yl)ethan-1-one] | 7.88 | 5.24 | 8.52
2 | Cc1cc2c(OC3CCN(C)CC3)n[nH]c2cc1-c1cc(C)c2ncnn2c1 [Example 171, 8-methyl-6-(5-methyl-3-((1-methylpiperidin-4-yl)oxy)-1H-indazol-6-yl)-[1,2,4]triazolo[1,5-a] pyridine] | 8.09 | 5.56 | 10.00
3 | Cc1cc2c(OCCN(C)C)n[nH]c2cc1-c1cc(C)c2ncnn2c1 [Example 172, N,N-dimethyl-2-((5-methyl-6-(8-methyl-[1,2,4]triazolo[1,5-a]pyridin-6-yl)-1H-indazol-3-yl)oxy)ethan-1-amine] | 7.43 | 5.29 | 8.85
4 | Cc1cc(-c2cc(C)c3ncnn3c2)cc2[nH]nc(OCCN(C)C)c12 [Example 173, N,N-dimethyl-2-((4-methyl-6-(8-methyl-[1,2,4]triazolo[1,5-a]pyridin-6-yl)-1H-indazol-3-yl)oxy)ethan-1-amine] | 7.72 | 5.73 | 8.10
5 | Cc1cc(-c2cc(C)c3ncnn3c2)cc2[nH]nc(OC3CCNCC3)c12 [Example 174, 8-methyl-6-(4-methyl-3-(piperidin-4-yloxy)-1H-indazol-6-yl)-[1,2,4]triazolo[1,5-a]pyridine] | 8.74 | 6.36 | 8.85
6 | Cc1cc(-c2cc(C)c3ncnn3c2)cc2[nH]nc(OC3CCN(C(=O)CN(C)C)CC3)c12 [Example 175, 2-(dimethylamino)-1-(4-((4-methyl-6-(8-methyl-[1,2,4]triazolo[1,5-a]pyridin-6-yl)-1H-indazol-3-yl)oxy)piperidin-1-yl)ethan-1-one] | 8.29 | 5.79 | 7.97

Continued, values first:

Row | pIC50 [1] | pIC50 [2] | pIC50 [3] | SMILES
7 | 7.90 | 5.31 | 8.42 | Cc1cc(-c2cc(C)c3ncnn3c2)cc2[nH]nc(OC3CCN(CC(=O)N(C)C)CC3)c12 [Example 176, N,N-dimethyl-2-(4-((4-methyl-6-(8-methyl-[1,2,4]triazolo[1,5-a]pyridin-6-yl)-1H-indazol-3-yl)oxy)piperidin-1-yl)acetamide]
8 | 8.57 | 6.03 | 9.30 | Cc1cc(-c2cc(C)c3ncnn3c2)cc2[nH]nc(OC3CCN(C)CC3)c12 [Example 177, 8-methyl-6-(4-methyl-3-((1-methylpiperidin-4-yl)oxy)-1H-indazol-6-yl)-[1,2,4]triazolo[1,5-a]pyridine]
9 | 8.21 | 5.79 | 9.30 | Cc1cc(-c2cc(C)c3ncnn3c2)cc2[nH]nc(OC3CCN(C4CCOCC4)CC3)c12 [Example 178, 8-methyl-6-(4-methyl-3-((1-(tetrahydro-2H-pyran-4-yl)piperidin-4-yl)oxy)-1H-indazol-6-yl)-[1,2,4]triazolo[1,5-a]pyridine]
10 | 7.95 | 5.74 | 8.31 | Cc1cc(-c2cc(C)c3ncnn3c2)cc2[nH]nc(OC3CCC(NCCS(C)(=O)=O)CC3)c12 (stereo not drawn) [Example 187, 4-((4-methyl-6-(8-methyl-[1,2,4]triazolo[1,5-a]pyridin-6-yl)-1H-indazol-3-yl)oxy)-N-(2-(methylsulfonyl)ethyl)cyclohexan-1-amine]
11 | 8.40 | 5.36 | 8.64 | Cc1cc(-c2cc(C)c3ncnn3c2)cc2[nH]nc(OC3CCC(NCCS(C)(=O)=O)CC3)c12 (stereo not drawn) [Example 188, 4-((4-methyl-6-(8-methyl-[1,2,4]triazolo[1,5-a]pyridin-6-yl)-1H-indazol-3-yl)oxy)-N-(2-(methylsulfonyl)ethyl)cyclohexan-1-amine]

Reference: patent US12172995B2, “Substituted indole and indazole compounds” (BRISTOL-MYERS SQUIBB COMPANY, priority 2018, dated 2024)
